# Calls of active or inactive are those of the source.
# Tests used:
# [1] = molecular target: T1, E3 ubiquitin-protein ligase XIAP (Homo sapiens, UniProt P98170); assay: small molecules displacing peptide from XIAP – biochemical, IAP family, fluorescence polarization (AID 1018); assay type: functional
# [2] = molecular target: T1, E3 ubiquitin-protein ligase XIAP; assay: Counter Screen using XIAP-Bir3 for Chemical Antagonists of Bir1/2 domains of IAP-family anti-apoptotic proteins. [Related pubchem assays (depositor defined):AID1018, AID1449, AID1514, AID1638, AID1749, AID1750, AID488957, AID488963]
# CAAX prenyl protease 1 = CAAX prenyl protease 1 (Saccharomyces cerevisiae S288c, UniProt P47154); assay: yeast CAAX protease Ste24 inhibition – biochemical, S. cerevisiae, plate reader, cherry-pick, dose response (AID 488815)
# Trypsin = Trypsin (Sus scrofa, UniProt P00761); assay: trypsin protease activity blockade – biochemical, quenched peptide fluorescence, cherry-pick, selectivity assay for Rce1 protease inhibitor project, dose response (AID 488789)
# [3] = tested on: Streptococcus sp. 'group A'; assay: Streptococcus pyogenes SK(-)GAS viability under kanamycin – luminescence, BacTiterGlo, confirmation, counter-screen for streptokinase expression inhibitor project, dose response (AID 1900); assay type: functional, organism-based
# Streptococcus = assay: GAS UMAA2166 growth inhibition – luminescence, BacTiterGlo, counter-screen for streptokinase expression inhibitor project, dose response (AID 1915); assay type: functional, organism-based;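 note: potency for reduction of bacterial viability or growth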
# [4] = molecular target: Lysine-specific demethylase 4C (Homo sapiens, UniProt Q9H3R0); assay: inhibition of JMJD2C H3K9me3 demethylation – biochemical, DELFIA europium, cherry-picked samples, dose response (AID 488835); assay type: functional
# [5] = molecular target: T2, Tyrosine-protein phosphatase non-receptor type 7 (Homo sapiens, UniProt P35236); assay type: functional
# T2 sequence (P35236 whole entry): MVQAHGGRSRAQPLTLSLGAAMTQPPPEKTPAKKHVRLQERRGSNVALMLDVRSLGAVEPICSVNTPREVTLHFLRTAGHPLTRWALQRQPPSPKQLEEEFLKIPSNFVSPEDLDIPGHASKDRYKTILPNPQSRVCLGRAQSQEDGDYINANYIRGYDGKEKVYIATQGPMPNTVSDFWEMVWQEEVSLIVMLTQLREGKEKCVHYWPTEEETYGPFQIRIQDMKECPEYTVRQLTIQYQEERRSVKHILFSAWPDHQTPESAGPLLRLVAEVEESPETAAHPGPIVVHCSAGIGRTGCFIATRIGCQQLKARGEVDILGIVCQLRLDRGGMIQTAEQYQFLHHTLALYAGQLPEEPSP
# [6] = molecular target: T3, Tyrosine-protein phosphatase non-receptor type 22 (Homo sapiens, UniProt Q9Y2R2); assay type: functional
# T3 sequence (Q9Y2R2 whole entry): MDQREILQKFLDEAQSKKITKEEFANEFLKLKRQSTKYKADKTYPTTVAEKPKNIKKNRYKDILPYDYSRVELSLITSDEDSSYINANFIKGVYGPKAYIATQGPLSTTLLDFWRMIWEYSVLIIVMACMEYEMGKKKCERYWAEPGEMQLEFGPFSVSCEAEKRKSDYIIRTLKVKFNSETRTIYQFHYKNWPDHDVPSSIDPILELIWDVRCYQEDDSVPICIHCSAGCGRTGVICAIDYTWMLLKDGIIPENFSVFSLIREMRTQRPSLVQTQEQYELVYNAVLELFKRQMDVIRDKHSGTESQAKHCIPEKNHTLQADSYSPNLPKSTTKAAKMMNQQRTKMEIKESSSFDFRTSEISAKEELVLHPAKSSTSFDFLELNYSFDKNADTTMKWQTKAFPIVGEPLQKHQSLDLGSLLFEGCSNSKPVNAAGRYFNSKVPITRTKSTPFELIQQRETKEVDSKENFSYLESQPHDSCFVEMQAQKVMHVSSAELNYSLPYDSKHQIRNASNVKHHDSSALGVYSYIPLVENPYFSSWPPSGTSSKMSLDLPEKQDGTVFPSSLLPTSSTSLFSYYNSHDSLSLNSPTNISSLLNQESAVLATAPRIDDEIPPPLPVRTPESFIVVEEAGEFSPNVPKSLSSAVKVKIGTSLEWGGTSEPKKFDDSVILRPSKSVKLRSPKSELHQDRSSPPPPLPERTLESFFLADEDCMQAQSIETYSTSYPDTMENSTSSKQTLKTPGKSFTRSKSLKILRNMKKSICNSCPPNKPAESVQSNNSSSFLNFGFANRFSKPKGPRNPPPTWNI
# [7] = molecular target: T3, Tyrosine-protein phosphatase non-receptor type 22; assay type: functional; remark: listed apart in the source
# T1 sequence (P98170 whole entry): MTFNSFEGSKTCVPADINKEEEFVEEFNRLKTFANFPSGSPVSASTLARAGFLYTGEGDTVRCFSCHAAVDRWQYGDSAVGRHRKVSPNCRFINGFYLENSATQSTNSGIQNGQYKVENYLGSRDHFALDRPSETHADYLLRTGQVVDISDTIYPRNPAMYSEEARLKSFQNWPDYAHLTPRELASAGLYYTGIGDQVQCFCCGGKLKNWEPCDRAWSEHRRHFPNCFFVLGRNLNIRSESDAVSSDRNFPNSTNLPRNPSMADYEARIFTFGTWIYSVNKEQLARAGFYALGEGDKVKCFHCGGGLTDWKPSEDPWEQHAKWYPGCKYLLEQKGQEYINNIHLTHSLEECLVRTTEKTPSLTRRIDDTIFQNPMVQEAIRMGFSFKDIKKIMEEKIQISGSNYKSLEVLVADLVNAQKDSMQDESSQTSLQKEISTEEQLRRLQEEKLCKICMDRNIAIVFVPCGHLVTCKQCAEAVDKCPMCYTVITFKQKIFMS
# Chain of Lysine-specific demethylase 4C (Q9H3R0 whole entry): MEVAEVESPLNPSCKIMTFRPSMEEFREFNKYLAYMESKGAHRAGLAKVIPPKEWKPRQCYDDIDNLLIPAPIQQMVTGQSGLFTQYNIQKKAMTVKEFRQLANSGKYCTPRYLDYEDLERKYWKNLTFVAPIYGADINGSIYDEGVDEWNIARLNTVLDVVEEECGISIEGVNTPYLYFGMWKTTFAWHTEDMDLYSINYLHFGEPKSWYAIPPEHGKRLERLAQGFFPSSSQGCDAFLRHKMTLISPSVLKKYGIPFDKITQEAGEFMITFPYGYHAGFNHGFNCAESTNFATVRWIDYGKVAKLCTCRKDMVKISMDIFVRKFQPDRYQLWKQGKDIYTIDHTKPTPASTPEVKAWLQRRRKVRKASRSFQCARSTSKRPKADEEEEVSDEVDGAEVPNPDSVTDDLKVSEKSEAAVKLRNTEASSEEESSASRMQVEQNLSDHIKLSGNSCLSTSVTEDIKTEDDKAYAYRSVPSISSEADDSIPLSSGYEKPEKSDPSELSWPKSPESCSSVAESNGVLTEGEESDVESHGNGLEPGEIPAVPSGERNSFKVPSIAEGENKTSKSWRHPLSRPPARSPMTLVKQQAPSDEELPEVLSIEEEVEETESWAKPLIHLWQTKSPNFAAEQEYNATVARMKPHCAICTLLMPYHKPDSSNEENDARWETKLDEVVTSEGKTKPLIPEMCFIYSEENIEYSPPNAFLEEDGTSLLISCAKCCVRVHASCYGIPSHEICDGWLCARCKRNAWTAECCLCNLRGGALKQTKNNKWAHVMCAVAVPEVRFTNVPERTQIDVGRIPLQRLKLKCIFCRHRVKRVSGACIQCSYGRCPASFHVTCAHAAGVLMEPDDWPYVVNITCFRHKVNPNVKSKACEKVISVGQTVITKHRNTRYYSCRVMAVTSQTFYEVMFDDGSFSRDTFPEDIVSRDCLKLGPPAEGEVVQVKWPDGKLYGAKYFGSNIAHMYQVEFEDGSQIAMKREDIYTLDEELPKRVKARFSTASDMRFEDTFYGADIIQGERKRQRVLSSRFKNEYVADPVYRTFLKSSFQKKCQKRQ
# Chain of Trypsin (P00761 whole entry): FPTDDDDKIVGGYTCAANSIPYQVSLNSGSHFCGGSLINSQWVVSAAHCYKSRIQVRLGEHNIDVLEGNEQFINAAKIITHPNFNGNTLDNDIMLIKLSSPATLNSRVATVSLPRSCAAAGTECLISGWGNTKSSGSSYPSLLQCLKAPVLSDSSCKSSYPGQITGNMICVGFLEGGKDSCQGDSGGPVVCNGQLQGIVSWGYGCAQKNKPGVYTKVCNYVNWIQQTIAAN
# Chain of CAAX prenyl protease 1 (P47154 whole entry): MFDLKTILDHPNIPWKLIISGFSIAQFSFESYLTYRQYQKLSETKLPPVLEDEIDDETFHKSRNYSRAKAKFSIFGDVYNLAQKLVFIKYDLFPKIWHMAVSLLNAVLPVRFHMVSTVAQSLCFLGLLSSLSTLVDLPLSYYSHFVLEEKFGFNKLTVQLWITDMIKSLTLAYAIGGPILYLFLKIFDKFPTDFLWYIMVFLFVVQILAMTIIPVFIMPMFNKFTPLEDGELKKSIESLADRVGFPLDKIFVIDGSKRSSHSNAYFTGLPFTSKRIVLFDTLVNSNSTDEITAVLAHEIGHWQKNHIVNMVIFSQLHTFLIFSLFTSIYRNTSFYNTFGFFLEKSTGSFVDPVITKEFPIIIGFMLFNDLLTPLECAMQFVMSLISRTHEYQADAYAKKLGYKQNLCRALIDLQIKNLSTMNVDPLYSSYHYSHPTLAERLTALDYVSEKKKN
structure (smiles),measurement,setting,value
Cc1ccsc1/C=C(\C#N)C(=O)NCc1ccco1,IC50,[1],> 100 µM (not active)
same,IC50,[2],> 100 µM (inactive)
CC1COc2c(N3CCN(C)CC3)c(F)cc3c(=O)c(C(=O)O)cn1c23 (configuration not stated) [OFLOXACIN],AC50,CAAX prenyl protease 1,1.95 µM (active)
same,AC50,Trypsin,9.26 µM (active)
same,EC50,[3],3.03 µM (active)
same,EC50,Streptococcus,4.11 µM (active)
C=CCn1c(C)c(C=C2C(=O)NC(=O)NC2=O)c2ccccc21,AC50,[4],2.9 µM (active)
Cc1noc(NS(=O)(=O)c2ccc(NC(=O)c3nn(-c4ccccc4)ccc3=O)cc2)c1C,IC50,[5],> 79.4 µM (inactive)
same,IC50,[6],> 79.4 µM (inactive)
same,IC50,[7],> 79.4 µM (inactive)
Cc1ccc2c(c1)C(c1ccccc1)N(C(=O)c1ccc(Br)o1)CC(=O)N2 (configuration not stated),IC50,[1],> 100 µM (not active)
same,IC50,[2],> 100 µM (inactive)

# Source: ChEMBL document CHEMBL1201862, “PubChem BioAssay data set” (2004)
